According to ChEMBL document CHEMBL3885881, “DrugMatrix”:

Organism: Rattus norvegicus
Assay: DrugMatrix - Regimen: Daily Repeat
Assay type: toxicity, organism-based, Sprague-Dawley
Parameters: regimen Daily Repeat, gender Male, age 6-8 weeks
Settings: in vivo, po, route oral GAVAGE, vehicle .5 % CMC; for ABSOLUTE BASOPHIL / ABSOLUTE EOSINOPHIL / ABSOLUTE LYMPHOCYTE / ABSOLUTE MONOCYTE / ABSOLUTE SEGMENTED NEUTROPHIL / BASOPHIL / EOSINOPHIL / ERYTHROCYTE COUNT / HEMATOCRIT / HEMOGLOBIN / LEUKOCYTE COUNT / LYMPHOCYTE / MEAN CORPUSCULAR HEMOGLOBIN / MEAN CORPUSCULAR HEMOGLOBIN CONCENTRATION / MEAN CORPUSCULAR VOLUME / MONOCYTE / NEUTROPHIL / NUCLEATED RED BLOOD CELLS / PLATELET COUNT: tissue Blood; for ALANINE AMINOTRANSFERASE / ALBUMIN / ALKALINE PHOSPHATASE / ASPARTATE AMINOTRANSFERASE / BLOOD UREA NITROGEN / CARBON DIOXIDE / CHLORIDE / CHOLESTEROL / CREATINE PHOSPHOKINASE / CREATININE / GLUCOSE / LACTATE DEHYDROGENASE / LIPASE / PHOSPHORUS / POTASSIUM / SODIUM / TOTAL BILIRUBIN / TOTAL PROTEIN / URIC ACID: tissue Plasma
[1] = 0 mg/kg, 72 h, dose level Control, time 3 day
[2] = 0 mg/kg, 120 h, dose level Control, time 5 day
[3] = 30 mg/kg, 72 h, dose level Low, time 3 day

For `CCOc1cc(N)c(Cl)cc1C(=O)NCC1CN(Cc2ccc(F)cc2)CCO1` (centres undefined) [MOSAPRIDE], the “ABSOLUTE BASOPHIL” value [1] was 0 CELLS/uL, the “ABSOLUTE EOSINOPHIL” value [1] was 171.33 CELLS/uL and the “ABSOLUTE LYMPHOCYTE” value [1] was 13776.5 CELLS/uL. For the same molecule, the “ABSOLUTE MONOCYTE” value [1] was 180.83 CELLS/uL, the “ABSOLUTE SEGMENTED NEUTROPHIL” value [1] was 1121.33 CELLS/uL and the BASOPHIL [1] was 0%. The EOSINOPHIL [1] was 1%, the “ERYTHROCYTE COUNT” value [1] was 5.56 x10E6/uL and the HEMATOCRIT [1] was 34.75%. The HEMOGLOBIN [1] was 13.68 G/DL, the “LEUKOCYTE COUNT” value [1] was 15.25 x10E3/uL and the LYMPHOCYTE [1] was 90.17%. For the same molecule, the “MEAN CORPUSCULAR HEMOGLOBIN” value [1] was 24.6 pg, the “MEAN CORPUSCULAR HEMOGLOBIN CONCENTRATION” value [1] was 39.4 G/DL and the “MEAN CORPUSCULAR VOLUME” value [1] was 62.48 fL. The MONOCYTE [1] was 1.17%, the NEUTROPHIL [1] was 7.67% and the “NUCLEATED RED BLOOD CELLS” value [1] was 0 /100WBC. The “PLATELET COUNT” value [1] was 1342 x10E3/uL, the “ALANINE AMINOTRANSFERASE” value [1] was 49.67 u/L and the ALBUMIN [1] was 4.15 G/DL. For the same molecule, the “ALKALINE PHOSPHATASE” value [1] was 346.83 u/L, the “ASPARTATE AMINOTRANSFERASE” value [1] was 108.17 u/L and the “BLOOD UREA NITROGEN” value [1] was 17.33 mg/dL. For the same molecule, the “CARBON DIOXIDE” value [1] was 25 mmol/L, the CHLORIDE [1] was 100.83 MEQ/L and the CHOLESTEROL [1] was 66.83 mg/dL. The “CREATINE PHOSPHOKINASE” value [1] was 788 u/L, the CREATININE [1] was 0.18 mg/dL and the GLUCOSE [1] was 151.67 mg/dL. The “LACTATE DEHYDROGENASE” value [1] was 982.5 u/L, the LIPASE [1] was 10.33 u/L and the PHOSPHORUS [1] was 11.23 mg/dL. For the same molecule, the POTASSIUM [1] was 6.37 MEQ/L, the SODIUM [1] was 141.02 MEQ/L and the “TOTAL BILIRUBIN” value [1] was 0.18 mg/dL. The “TOTAL PROTEIN” value [1] was 5.9 G/DL, the “URIC ACID” value [1] was 1.8 mg/dL and the “ABSOLUTE BASOPHIL” value [2] was 0 CELLS/uL. The “ABSOLUTE EOSINOPHIL” value [2] was 69 CELLS/uL, the “ABSOLUTE LYMPHOCYTE” value [2] was 13632.83 CELLS/uL and the “ABSOLUTE MONOCYTE” value [2] was 139.83 CELLS/uL. The “ABSOLUTE SEGMENTED NEUTROPHIL” value [2] was 1225 CELLS/uL, the BASOPHIL [2] was 0% and the EOSINOPHIL [2] was 0.33%. For the same molecule, the “ERYTHROCYTE COUNT” value [2] was 5.52 x10E6/uL, the HEMATOCRIT [2] was 33.98% and the HEMOGLOBIN [2] was 13.22 G/DL. For the same molecule, the “LEUKOCYTE COUNT” value [2] was 15.07 x10E3/uL, the LYMPHOCYTE [2] was 90.83% and the “MEAN CORPUSCULAR HEMOGLOBIN” value [2] was 23.95 pg. For the same molecule, the “MEAN CORPUSCULAR HEMOGLOBIN CONCENTRATION” value [2] was 38.9 G/DL, the “MEAN CORPUSCULAR VOLUME” value [2] was 61.53 fL and the MONOCYTE [2] was 0.83%. For the same molecule, the NEUTROPHIL [2] was 8%, the “NUCLEATED RED BLOOD CELLS” value [2] was 0 /100WBC and the “PLATELET COUNT” value [2] was 1196 x10E3/uL. The “ALANINE AMINOTRANSFERASE” value [2] was 49.17 u/L, the ALBUMIN [2] was 4.2 G/DL and the “ALKALINE PHOSPHATASE” value [2] was 352.33 u/L. For the same molecule, the “ASPARTATE AMINOTRANSFERASE” value [2] was 89.67 u/L, the “BLOOD UREA NITROGEN” value [2] was 18 mg/dL and the “CARBON DIOXIDE” value [2] was 27.67 mmol/L. The CHLORIDE [2] was 101 MEQ/L, the CHOLESTEROL [2] was 72.83 mg/dL and the “CREATINE PHOSPHOKINASE” value [2] was 417.5 u/L. The CREATININE [2] was 0.18 mg/dL, the GLUCOSE [2] was 150.5 mg/dL and the “LACTATE DEHYDROGENASE” value [2] was 517.33 u/L. It also gave an LIPASE [2] of 9 u/L, a PHOSPHORUS [2] of 11.87 mg/dL and a POTASSIUM [2] of 6.57 MEQ/L. For the same molecule, the SODIUM [2] was 143.62 MEQ/L, the “TOTAL BILIRUBIN” value [2] was 0.2 mg/dL and the “TOTAL PROTEIN” value [2] was 6.08 G/DL. For the same molecule, the “URIC ACID” value [2] was 1.45 mg/dL, the “ABSOLUTE BASOPHIL” value [3] was 0 CELLS/uL and the “ABSOLUTE EOSINOPHIL” value [3] was 0 CELLS/uL. For the same molecule, the “ABSOLUTE LYMPHOCYTE” value [3] was 13493 CELLS/uL, the “ABSOLUTE MONOCYTE” value [3] was 253.67 CELLS/uL and the “ABSOLUTE SEGMENTED NEUTROPHIL” value [3] was 1253.33 CELLS/uL. The BASOPHIL [3] was 0%, the EOSINOPHIL [3] was 0% and the “ERYTHROCYTE COUNT” value [3] was 5.62 x10E6/uL. For the same molecule, the HEMATOCRIT [3] was 34.97%, the HEMOGLOBIN [3] was 13.6 G/DL and the “LEUKOCYTE COUNT” value [3] was 15 x10E3/uL. The LYMPHOCYTE [3] was 90%, the “MEAN CORPUSCULAR HEMOGLOBIN” value [3] was 24.23 pg and the “MEAN CORPUSCULAR HEMOGLOBIN CONCENTRATION” value [3] was 38.9 G/DL. The “MEAN CORPUSCULAR VOLUME” value [3] was 62.3 fL, the MONOCYTE [3] was 1.67% and the NEUTROPHIL [3] was 8.33%. The “NUCLEATED RED BLOOD CELLS” value [3] was 0 /100WBC, the “PLATELET COUNT” value [3] was 1159.67 x10E3/uL and the “ALANINE AMINOTRANSFERASE” value [3] was 57.33 u/L. For the same molecule, the ALBUMIN [3] was 4.3 G/DL, the “ALKALINE PHOSPHATASE” value [3] was 338 u/L and the “ASPARTATE AMINOTRANSFERASE” value [3] was 95 u/L. For the same molecule, the “BLOOD UREA NITROGEN” value [3] was 14.67 mg/dL, the “CARBON DIOXIDE” value [3] was 26.33 mmol/L and the CHLORIDE [3] was 102 MEQ/L. For the same molecule, the CHOLESTEROL [3] was 74 mg/dL, the “CREATINE PHOSPHOKINASE” value [3] was 533.33 u/L and the CREATININE [3] was 0.2 mg/dL. The GLUCOSE [3] was 136.67 mg/dL, the “LACTATE DEHYDROGENASE” value [3] was 408 u/L and the LIPASE [3] was 10.67 u/L. It also gave a PHOSPHORUS [3] of 12.77 mg/dL, a POTASSIUM [3] of 6.39 MEQ/L and an SODIUM [3] of 143.7 MEQ/L. The “TOTAL BILIRUBIN” value [3] was 0.2 mg/dL, the “TOTAL PROTEIN” value [3] was 6 G/DL and the “URIC ACID” value [3] was 1.47 mg/dL.
